According to ChEMBL document CHEMBL1201862, “PubChem BioAssay data set” (2004):
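How tested: cells in 96-well plates exposed to compound for 48 hours at five concentrations. GI50: concentration for 50% inhibition of growth.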 Calls of active or inactive are those of the source. Rule as the data show it: active = GI50 up to about 1.1 µM and inactive = higher.

Key:
Assay in all cases: NCI tumour cell line growth inhibition, 48 h
[1] = system: A498
[2] = system: CAKI-1
[3] = system: HOP-92
[4] = system: HT-29
[5] = system: IGROV-1
[6] = system: K562
[7] = system: LOX IMVI
[8] = system: OVCAR-4
[9] = system: OVCAR-5
[10] = system: OVCAR-8
[11] = system: RPMI-8226
[12] = system: RXF 393
[13] = system: SF-539
[14] = system: SK-MEL-2
[15] = system: SN12C
[16] = system: SNB-75
[17] = system: SW-620
[18] = system: TK-10

Measured: GI50

CCCCOC(=O)C1C(c2ccc(Cl)cc2)NC(c2ccc(Cl)cc2)C(C(=O)OCCCC)S1(=O)=O (stereo unspecified)
inactive: [1] > 100 µM | [2] > 100 µM | [3] > 100 µM | [4] > 100 µM | [5] > 100 µM | [6] > 100 µM | [7] > 100 µM | [8] > 100 µM | [9] > 100 µM | [10] > 100 µM | [11] > 100 µM | [12] > 100 µM | [13] > 100 µM | [14] > 100 µM | [15] > 100 µM | [16] > 100 µM | [17] > 100 µM | [18] > 100 µM

COc1ccc(N2C(=O)C3CC(c4ccc(C)cc4)c4c([nH]c5ccccc45)C3C2=O)cc1 (stereo unspecified)
inactive: [1] 30.2 µM | [2] > 96.2 µM | [3] 24 µM | [4] 16.3 µM | [5] 38 µM | [6] > 63 µM | [7] 6.92 µM | [8] 13.9 µM | [9] > 72.3 µM | [10] 5.43 µM | [13] 23.7 µM | [14] > 75.2 µM | [15] 8.87 µM | [16] 18.4 µM | [17] 6.22 µM | [18] 36.5 µM

NNC(=O)N/N=C1\C(=O)N(c2ccc(Cl)c(Cl)c2)C(=O)C(=O)C1c1nc2ccccc2s1 (stereo unspecified)
inactive: [1] > 100 µM | [2] > 100 µM | [3] > 100 µM | [4] > 100 µM | [5] > 100 µM | [8] > 100 µM | [10] > 100 µM | [12] 38.5 µM | [13] > 100 µM | [14] > 100 µM | [15] > 100 µM | [16] > 100 µM | [17] > 100 µM | [18] > 100 µM

COc1nc2c(c(O)c(C)c(=O)n2OC2OC(COC(C)=O)C(OC(C)=O)C(OC(C)=O)C2OC(C)=O)c(=O)n1C (stereo unspecified)
inactive: [4] > 100 µM | [5] > 100 µM | [6] > 100 µM | [7] > 100 µM | [8] > 100 µM | [9] > 100 µM | [10] > 100 µM | [12] > 100 µM | [13] > 100 µM | [14] > 100 µM | [15] > 100 µM | [16] > 100 µM | [17] > 100 µM | [18] > 100 µM

Cc1ccccc1N(CCC#N)C1=NN(C(=O)CC(=O)Nc2ccccc2)C(c2ccccc2)C1 (stereo unspecified)
inactive: [3] > 100 µM | [4] > 100 µM | [5] > 100 µM | [6] > 100 µM | [8] > 100 µM | [9] > 100 µM | [10] > 100 µM | [11] > 100 µM | [12] > 100 µM | [13] > 100 µM | [14] > 100 µM | [15] > 100 µM | [16] 35 µM | [17] > 100 µM

O=C(O)/C(Cl)=C(Cl)/C=N/NC(=O)c1cc2ccccc2cc1O
inactive: [1] 24.6 µM | [2] 21 µM | [3] 30.3 µM | [4] 38.6 µM | [5] 15.5 µM | [6] 6.11 µM | [8] 5.66 µM | [9] 19.3 µM | [10] 19.7 µM | [11] 6.71 µM | [13] 29.6 µM | [14] 16 µM | [15] 38.5 µM | [16] 3.38 µM | [17] 17.3 µM | [18] 35.5 µM

COc1cc(/C=N/N=C(\N)NO)ccc1O
inactive: [1] 44.9 µM | [2] 28.6 µM | [3] > 100 µM | [4] 67.8 µM | [5] > 100 µM | [6] 33.3 µM | [7] 30.5 µM | [8] > 100 µM | [9] 18.1 µM | [10] 63.7 µM | [11] > 100 µM | [12] 31.5 µM | [13] 46.3 µM | [14] 69.3 µM | [15] > 100 µM | [17] 68.2 µM

C=CCCCN1CCCCC1=S
inactive: [3] > 100 µM | [4] > 100 µM | [5] > 100 µM | [6] > 100 µM | [7] > 100 µM | [8] > 100 µM | [9] > 100 µM | [10] > 100 µM | [11] > 100 µM | [12] > 100 µM | [13] > 100 µM | [14] > 100 µM | [15] > 100 µM | [16] 36.5 µM | [17] > 100 µM | [18] > 100 µM

Cc1ccc(S(=O)(=O)C(CC(NC=O)S(=O)(=O)c2ccc(C)cc2)NC=O)cc1 (stereo unspecified)
inactive: [1] > 100 µM | [2] > 100 µM | [3] > 100 µM | [4] > 100 µM | [5] > 100 µM | [6] > 100 µM | [7] > 100 µM | [8] > 100 µM | [10] > 100 µM | [11] > 100 µM | [12] > 100 µM | [13] > 100 µM | [15] > 100 µM | [16] > 100 µM | [17] > 100 µM | [18] > 100 µM

Cc1ccc(-c2cc(=O)c3cc(C)c(C)c(C(=O)O)c3o2)cc1
inactive: [1] > 100 µM | [3] > 100 µM | [4] > 100 µM | [5] > 100 µM | [6] > 10 µM | [7] > 100 µM | [8] > 100 µM | [9] > 100 µM | [10] > 100 µM | [11] > 100 µM | [13] 29.9 µM | [14] > 100 µM | [15] > 100 µM | [16] 47.9 µM | [17] > 100 µM | [18] > 100 µM

Cc1cc(=O)n(-c2ccccc2C)c(C)n1
inactive: [1] > 100 µM | [2] > 100 µM | [3] > 100 µM | [4] > 100 µM | [5] > 100 µM | [6] > 100 µM | [7] > 100 µM | [8] > 100 µM | [9] > 100 µM | [10] > 100 µM | [12] > 100 µM | [13] > 100 µM | [14] > 100 µM | [15] > 100 µM | [16] > 100 µM | [17] > 100 µM | [18] > 100 µM

Cc1ccc(/C=C2\CCCC(C(NO)c3ccc(C)cc3)C2=NO)cc1 (stereo unspecified)
inactive: [1] 49.8 µM | [2] 81.8 µM | [4] 19.5 µM | [5] > 100 µM | [6] 33.8 µM | [8] 20 µM | [10] 53 µM | [11] 22.6 µM | [12] 20.6 µM | [13] 39.6 µM | [14] 69.2 µM | [15] 20.7 µM | [16] 28 µM | [17] 42.6 µM | [18] > 100 µM

CCc1ccccc1NC(=O)C1=C(C)NC(C)=C(C(=O)Nc2c(CC)cccc2CC)C1c1ccc2c(c1)OCO2 (stereo unspecified)
inactive: [2] 19.5 µM | [3] 12.7 µM | [4] 18 µM | [5] 25.4 µM | [6] 22.7 µM | [7] 16.9 µM | [8] 15.2 µM | [9] 18.2 µM | [10] 25.8 µM | [11] 15.8 µM | [12] 12.4 µM | [13] 21.2 µM | [14] 15.2 µM | [15] 26 µM | [16] 21.8 µM | [17] 18.1 µM | [18] 22.3 µM

CCCCN(CCCC)C(=O)C(=O)C(C)C(=O)CC (stereo unspecified)
inactive: [2] > 100 µM | [3] > 100 µM | [4] > 100 µM | [5] > 100 µM | [6] > 100 µM | [7] > 100 µM | [8] > 100 µM | [9] > 100 µM | [10] > 100 µM | [11] > 100 µM | [13] > 100 µM | [14] > 100 µM | [15] > 100 µM | [16] > 100 µM | [17] > 100 µM | [18] > 100 µM

O=C(c1ccccc1)c1c(CNCc2ccccc2)n(C(=O)c2ccccc2)c2ccccc12
inactive: [2] 69.3 µM | [3] 13.7 µM | [4] 24.6 µM | [5] > 100 µM | [6] 6.37 µM | [8] 9.95 µM | [9] > 100 µM | [10] 37.4 µM | [11] 11.6 µM | [13] 69.3 µM | [14] 63.4 µM | [16] 2.84 µM | [17] 71.6 µM | [18] > 100 µM

Cc1ccccc1C1OC(=O)c2ccccc21 (stereo unspecified)
inactive: [1] > 100 µM | [4] > 100 µM | [5] > 100 µM | [6] > 100 µM | [7] > 100 µM | [9] > 100 µM | [10] 83.8 µM | [12] > 100 µM | [13] > 100 µM | [14] > 100 µM | [15] > 100 µM | [16] 77.3 µM | [17] > 100 µM | [18] > 100 µM

CSc1nnc(C(C#N)C#N)nn1
inactive: [1] > 100 µM | [2] > 100 µM | [3] > 100 µM | [4] > 100 µM | [5] > 100 µM | [6] > 100 µM | [7] > 100 µM | [8] > 100 µM | [9] > 100 µM | [10] > 100 µM | [11] > 100 µM | [12] > 100 µM | [13] > 100 µM | [15] > 100 µM | [16] > 100 µM | [17] > 100 µM | [18] > 100 µM
